Measurements reported in patent publication US20130241815A1, “INK CONTAINING ANTHRAQUINONE BASED DYE, DYE USED IN THE INK, AND DISPLAY” (MITSUBISHI CHEMICAL CORPORATION, priority 2010, published 2013).

Tests used:
Format in all cases: physicochemical
[1] = Preparation of ink and evaluation of solubility in low polar solvents (saturated solution, absorption maximum, εC); conditions: for Solubility: saturated solution, room temperature
Description: Each of Illustrative Compounds 1 to 4 and Comparative Compounds 1, 2 and 4 was dissolved in each of the solvents of n-decane, tetradecane, ISOPAR M, and ISOPAR G, thereby preparing an ink. On that occasion, the solubility of each of the compounds in each of the solvents was measured in the following manner.
Each of the compounds (dyes) was added to each of the solvents until a dissolution residue was generated, and the contents were ultrasonically treated at a water temperature of 30° C. for 30 minutes. After standing at room temperature for 12 hours, the resultant was subjected to centrifugal filtration with a 0.1 μm filter by using an ultrasmall-sized centrifuge (centrifugal force: 5,200×g). Each of the obtained saturated solutions was diluted with an appropriate concentration, a solubility of each of the dyes was calculated from a relation with a previously measured absorption coefficient, and a product ∈C (cm^−1) of a molar absorption coefficient ∈ (L mole^−1 cm^−1) at the absorption maximum wavelength and a concentration C (mole L^−1) of the saturated solution was determined.

[2] = as above; conditions: for Absorption maximum wavelength: Decalin solution; for Solubility: Decalin, saturated solution, room temperature
[3] = Light resistance test (residual rate of dye after 2 h irradiation, 400 W high pressure mercury vapor lamp); conditions: 1 mg dye in 200 mL, 10 to 30° C.
Description: The light resistance of each of the compounds (dyes) was measured in the following manner.
1 mg of each of the compounds (dyes) was dissolved in 200 mL of each of the low polar solvents within a container, thereby preparing an ink. This ink was irradiated with light for 2 hours by using a photoreactor UVL-400HA (400 W high pressure mercury vapor lamp), manufactured by Riko Kagaku Sangyo K.K. During that interval, the container was cooled with a coolant, thereby keeping an internal temperature at from 10 to 30° C. A residual rate of the dye was determined by calculation according to the following expression, thereby evaluating the light resistance.
Residual rate=(Absorbance at the maximum absorption wavelength after irradiation)/(Absorbance at the maximum absorption wavelength before irradiation)

Row | εC ([1]; Decalin solution) | Absorption maximum wavelength ([1]; ISOPAR G solution) | εC ([1]; ISOPAR G solution) | Solubility ([1]; ISOPAR G) | Absorption maximum wavelength ([1]; ISOPAR M solution) | εC ([1]; ISOPAR M solution) | Solubility ([1]; ISOPAR M) | Absorption maximum wavelength ([1]; Tetradecane solution) | εC ([1]; Tetradecane solution) | Solubility ([1]; Tetradecane) | Absorption maximum wavelength ([1]; n-Decane solution) | εC (molar absorption coefficient at absorption maximum x concentration of saturated solution) ([1]; n-Decane solution) | Solubility ([1]; n-Decane) | Absorption maximum wavelength [2] | Solubility [2] | Residual rate after light resistance test ([3]; n-Decane) | Residual rate after light resistance test ([3]; ISOPAR G) | Residual rate after light resistance test ([3]; ISOPAR M) | Residual rate after light resistance test ([3]; Tetradecane) | SMILES
1 | 26 cm⁻¹ | 594 nm | 7 cm⁻¹ | 0.02 % by mass | 594 nm | 7 cm⁻¹ | 0.02 % by mass | 595 nm | 12 cm⁻¹ | 0.04 % by mass | Unmeasurable | Low | Low | 636 nm | 0.07 % by mass |  |  |  |  | CNc1ccc(Nc2ccc(C)cc2)c2c1C(=O)c1ccccc1C2=O [Comparative Compound 1, C.I. Solvent Blue 11, reference compound]
2 | 7 cm⁻¹ | Unmeasurable | Low | Low | Unmeasurable | Low | Low | Unmeasurable | Low | Low | Unmeasurable | Low | Low | 520 nm | 0.01 % by mass |  |  |  |  | C=CCn1c(N=Nc2ccc(N(CCC)CCC)cc2NC(C)=O)nc(C#N)c1C#N [Comparative Compound 4, reference compound]
3 |  |  |  |  |  |  |  |  |  |  | 668 nm | 1000 cm⁻¹ | 4.7 % by mass |  |  |  |  |  |  | CCCCC(CC)CNc1ccc(NCC(CC)CCCC)c2c1C(=O)c1ccc(C(=O)OCC)cc1C2=O (stereo not drawn) [Illustrative Compound 2]

The next lines start with the compound.

Row | SMILES | εC ([1]; Decalin solution) | Absorption maximum wavelength ([1]; ISOPAR G solution) | εC ([1]; ISOPAR G solution) | Solubility ([1]; ISOPAR G) | Absorption maximum wavelength ([1]; ISOPAR M solution) | εC ([1]; ISOPAR M solution) | Solubility ([1]; ISOPAR M) | Absorption maximum wavelength ([1]; Tetradecane solution) | εC ([1]; Tetradecane solution) | Solubility ([1]; Tetradecane) | Absorption maximum wavelength ([1]; n-Decane solution) | εC (molar absorption coefficient at absorption maximum x concentration of saturated solution) ([1]; n-Decane solution) | Solubility ([1]; n-Decane) | Absorption maximum wavelength [2] | Solubility [2] | Residual rate after light resistance test ([3]; n-Decane) | Residual rate after light resistance test ([3]; ISOPAR G) | Residual rate after light resistance test ([3]; ISOPAR M) | Residual rate after light resistance test ([3]; Tetradecane)
4 | CC(C)CNc1ccc(Nc2ccccc2)c2c1C(=O)c1ccccc1C2=O [Comparative Compound 2, reference compound] |  |  |  |  |  |  |  |  |  |  | 614 nm | 200 cm⁻¹ | 0.7 % by mass |  |  |  |  |  | 
5 | CCCCN(CCCC)c1ccc(N=Nc2nc(C#N)c(C#N)n2CC#N)c(NC(C)=O)c1 [Comparative Compound 3, reference compound] |  |  |  |  |  |  |  |  |  |  |  |  |  |  |  | 45% |  |  | 
6 | CCCCC(CC)CNc1ccc(NCC(CC)CCCC)c2c1C(=O)c1ccccc1C2=O (stereo not drawn) [Illustrative Compound 1] | 3400 cm⁻¹ | 649 nm | 1900 cm⁻¹ | 7.3 % by mass | 650 nm | 1200 cm⁻¹ | 4.2 % by mass | 651 nm | 1600 cm⁻¹ | 5.7 % by mass | 650 nm | 2000 cm⁻¹ | 6.6 % by mass | 645 nm | 9.98 % by mass |  |  |  | 
7 | CCCCC(CC)CNc1ccc(NCC(CC)CCCC)c2c1C(=O)c1ccc(C(=O)OCC(C)C)cc1C2=O (stereo not drawn) [Illustrative Compound 3] | 3100 cm⁻¹ | 667 nm | 2700 cm⁻¹ | 10.8 % by mass | 668 nm | 1400 cm⁻¹ | 5.1 % by mass | 668 nm | 1200 cm⁻¹ | 4.7 % by mass | 668 nm | 1900 cm⁻¹ | 7.5 % by mass | 662 nm | 10.0 % by mass | 78% | 88% | 77% | 94%
8 | CCCCC(CC)CNc1ccc(NCC(CC)CCCC)c2c1C(=O)c1ccc(C(=O)OCCC)cc1C2=O (stereo not drawn) [Illustrative Compound 4] |  | 666 nm | 1400 cm⁻¹ | 5.5 % by mass | 667 nm | 1200 cm⁻¹ | 4.5 % by mass | 668 nm | 1300 cm⁻¹ | 4.9 % by mass | 668 nm | 2400 cm⁻¹ | 9.5 % by mass |  |  | 97% | 95% | 99% | 93%
